Source: patent publication US4839374A, “4-((Bicyclic heterocyclyl)-methyl and -hetero)-piperidines” (Janssen Pharmaceutica, N.V., priority 1987, dated 1989)

tested on: compound 48/80-induced lethality; experiment: Protection of rats from compound 48/80-induced lethality; assay type: in vivo, rats of an inbred Wistar strain; settings: Rattus norvegicus, 4 h, read-out: Compound 48/80 lethality test in rats ED50, s.c. or p.o. 1 h before compound 48/80 0.5 mg/kg i.v.; protection of 50% of animals, survival after 4 hours
Experimental: Protection of rats from compound 48/80-induced lethality
The protection from compound 48/80-induced lethal circulatory collapse appears to be a simple way of evaluating quantitatively the antihistaminic activity of test compounds. Male rats of an inbred Wistar strain, weighing 240-260 g were used in the experiment. After overnight starvation the rats were transferred to conditioned laboratories (temp.=21±1° C., relative humidity=65+5%). The rats were treated subcutaneously or orally with a test compound or with the solvent (NaCl solution, 0.9%). […] Survival after 4 hours is therefore considered to be a safe criterion of a protective effect of drug administration. The ED50 -values of the compounds of formula (I) are listed in the first column of tables 1 to 4. Said ED50 -values are the values in mg/kg body weight at which the tested compounds protect 50% of the tested animals against compound 48/80-induced lethality. The compounds of formula (I) and the pharmaceutically acceptable acid addition salts thereof are also potent serotonin-antagonists. The potency of the subject compounds as serotonin-antagonists is clearly evidenced by the results obtained in the following tests wherein the antagonistic activity of the subject compounds on the effect of serotonin is examined.

Going from `Cc1nc2sccn2c(=O)c1CCN1CCC(Cc2nc3cccnc3n2Cc2ccco2)CC1` [Compound 173] to `Cc1nc2n(c(=O)c1CCN1CCC(Cc3nc4cccnc4n3Cc3ccco3)CC1)CCCS2` [Compound 178], the ED50 rises from 0.01 mg/kg to 0.02 mg/kg (2-fold).

Going from `O=c1oc2ccccc2cc1CCN1CCC(Cc2nc3cccnc3n2Cc2ccco2)CC1` [Compound 174] to `O=c1oc2ccccc2cc1CCN1CCC(Cc2nc3ccccc3n2Cc2cccs2)CC1` [Compound 259], the ED50 rises from 0.01 mg/kg to 0.08 mg/kg (8-fold).

Going from `O=c1cc[nH]c(=O)n1CCN1CCC(Cc2nc3ccccc3n2Cc2ccco2)CC1` [Compound 175] to `Cn1c(=O)n(CCN2CCC(Cc3nc4ccccc4n3Cc3ccco3)CC2)c(=O)c2ccccc21` [Compound 221], the ED50 rises from 0.02 mg/kg to 0.04 mg/kg (2-fold).

`Cn1c(=O)c2c(ncn2CCN2CCC(Cc3nc4cccnc4n3Cc3ccco3)CC2)n(C)c1=O` [Compound 176] and `Cc1nc2scc(C)n2c(=O)c1CCN1CCC(Cc2nc3ccccc3n2Cc2ccco2)CC1` [Compound 216] are the same in ED50: 0.04 mg/kg for the first, 0.04 mg/kg for the second.

Compared with `CCn1nnnc1SCCN1CCC(Cc2nc3ccccc3n2Cc2ccc(F)cc2)CC1` [Compound 181], `Fc1ccc(Cn2c(CC3CCN(Cc4cn5cccnc5n4)CC3)nc3ccccc32)cc1` [Compound 183] is 4-fold lower in ED50: 0.04 mg/kg for the first, 0.01 mg/kg for the second.

`COc1ccc(CCN2CCC(Cc3nc4cnccc4n3Cc3ccc(F)cc3)CC2)cc1` [Compound 202, 1-[(4-fluorophenyl)methyl]-2-[[1-[2-(4-methoxyphenyl)ethyl]-4-piperidinyl]-methyl]-1H-imidazo-[4,5-c]pyridine] and `COc1ccc(CCN2CCC(Cc3nc4ccncc4n3Cc3ccc(F)cc3)CC2)cc1` [Compound 204, 3-[(4-fluorophenyl)methyl]-2-[[1-[2-(4-methoxyphenyl)ethyl]-4-piperidinyl]methyl]-3H-imidazo-[4,5-c]pyridine] are the same in ED50: 0.08 mg/kg for the first, 0.08 mg/kg for the second.

First: COc1ccc(CCN2CCC(Cc3nc4ncccc4n3Cc3ccc(F)cc3)CC2)cc1 [Compound 203, 1-[(4-fluorophenyl)methyl]-2-[[1-[2-(4-methoxyphenyl)ethyl]-4-piperidinyl]methyl]-1H-imidazo-[4,5-b]pyridine]
Second: COc1ccc(CCN2CCC(Cc3nc4cccnc4n3Cc3ccccn3)CC2)cc1 [Compound 234]
The ED50 of the first is 2-fold higher: 0.04 mg/kg for the first, 0.02 mg/kg for the second.

`Cc1nc2n(c(=O)c1CCN1CCC(Cc3nc4cccnc4n3Cc3ccc(F)cc3)CC1)CCCS2` [Compound 205, 7-[2-[4-[[3-[(4-fluorophenyl)methyl]-3H-imidazo[4,5-b]pyridin-2-yl]methyl]-1-piperidinyl]ethyl]-3,4-dihydro-8-methyl-2H,6H-pyrimido[2,1-b][1,3]thiazin-6-one] and `Cc1nc2n(c(=O)c1CCN1CCC(Cc3nc4cccnc4n3Cc3ccccn3)CC1)CCCC2` [Compound 258] are the same in ED50: 0.08 mg/kg for the first, 0.08 mg/kg for the second.

Compared with `O=c1[nH]c2ccccc2n1CCCN1CCC(Cc2nc3cccnc3n2Cc2cccs2)CC1` [Compound 215], `Cc1nc2ccccn2c(=O)c1CCN1CCC(Cc2nc3ccccc3n2Cc2cccs2)CC1` [Compound 257] is 4-fold lower in ED50: 0.08 mg/kg for the first, 0.02 mg/kg for the second.

First: COc1ccc(CCN2CCC(Cc3nc4ccccc4n3Cc3cccs3)CC2)cc1 [Compound 232]
Second: COc1ccc(CCN2CCC(Cc3nc4ccccc4n3Cc3cscn3)CC2)cc1 [Compound 245, 2-[[1-[2-(4-methoxyphenyl)ethyl]-4-piperidinyl]methyl]-1-(4-thiazolylmethyl)-1H-benzimidazole]
The ED50 of the first is 4-fold higher: 0.08 mg/kg for the first, 0.02 mg/kg for the second.

First: CCOC(=O)NCCN1CCC(Sc2nc3ccccc3n2Cc2ccc(F)cc2)CC1 [Compound 243, ethyl [2-[4-[[1-[(4-fluorophenyl)methyl]-1H-benzimidazol-2-yl]-thio]-1-piperidinyl)ethyl]carbamate]
Second: O=c1[nH]c2ccccc2n1CCCN1CCC(Sc2nc3ccccc3n2Cc2ccc(F)cc2)CC1 [Compound 255]
The ED50 of the first is 4-fold lower: 0.04 mg/kg for the first, 0.16 mg/kg for the second.

First: CCOC(=O)NCCN1CCC(Cc2nc3ccccc3n2Cc2cscn2)CC1 [Compound 248]
Second: Cc1nc2ccccn2c(=O)c1CCN1CCC(Cc2nc3cccnc3n2Cc2ccccn2)CC1 [Compound 256]
The ED50 of the first is 2-fold lower: 0.04 mg/kg for the first, 0.08 mg/kg for the second.
